Entries after “also recorded” stand apart in the source; their conditions may differ.
Legend:
subcutaneous 4T1 tumors [1] = test: Study 1 (09-3493): primary tumor growth, survival and time to endpoint in the syngeneic SQ 4T1 model; conditions: for effect on SQ 4T1 primary tumor growth: antibody 10 mg/kg IP 3x/week, ixabepilone 6 mg/kg IV Q4Dx3, capecitabine 360 mg/kg oral QDx14
Text: • Time points: Day 0: Investigators inject 50,000 4T1 cells+[…] ® subcutaneously in the right flank • Day 3: Investigators begin 2-3×/week tumor measurements • Day 6: DCM Staff begin antibody dosing IP 3×/week • DCM Staff begin ixabepilone dosing IV Q4D×3 • DCM Staff begin capecitabine dosing by oral gavage QD×14 • Animals were sacrificed when the primary tumors reached a volume of 2000 mm^3 or prior to the study takedown if they presented with moribund conditions (lack of grooming, labored breathing, cachexia, anorexia, or lethargy).
On Day 0, 150 twelve week-old female BALB/c mice each received subcutaneous injections of 50,000 4T1 cells in […] ® in the right flank. Tumor-bearing mice were routinely monitored and regular tumor measurements 2-3×/week were conducted beginning on Day 6. Tumor volume was determined using the following formula: Tumor Volume=Length×Width^2×0.52
Six days after tumor cell injection, when tumor volumes averaged 80 mm^3, the animals were size-matched and divided into twelve treatment groups of ten mice each. […] At this point investigators were blinded to treatment group designations and therapeutic administration was initiated. All mice received 10 mg/kg of either 1D11, 13C4 or antibody vehicle administered in 100 μl IP three times per week (Table 1). Specific cohorts of mice received additional treatments of ixabepilone (6 mg/kg in 200□1 IV Q4D×3), capecitabine (360 mg/kg in 100 μl by oral gavage QD×14) or both.
Mice were sacrificed once primary tumor volumes reached 2000 mm^3 or greater or if the tumors became ulcerated>20% of the tumor's surface area, or if the animals presented with moribund conditions (lack of grooming, labored breathing, cachexia, anorexia or lethargy). Upon sacrifice, gross necropsies were performed and tumors, lungs and other tissues bearing metastases were harvested.

[2] = Study 2 (09-3494): toxicity observations; assay type: in vivo, Balb/c mice; conditions: ixabepilone 3 mg/kg, capecitabine 360 mg/kg, antibody 10 mg/kg
subcutaneous 4T1 tumors [3] = test: Study 2 (09-3494): primary tumor growth in the SQ 4T1 model; assay type: in vivo, Balb/c mice; conditions: for effect on SQ 4T1 primary tumor growth / tumor volume: antibody 10 mg/kg IP 3x/week, ixabepilone 3 mg/kg IV Q4Dx3, capecitabine 360 mg/kg oral QDx14, to Day 23
Text: Treatment groups, time points, and tissues were similar to the study described above.
For proper analysis of metastasis, all mice were sacrificed on study Day 23. […] The primary tumor was bisected, with one half frozen in OCT and the other half stored in RNALATER™ for qPCR analysis. The lungs were fixed in zinc-buffered formalin for enumeration of pulmonary mets and subsequent IHC analysis.

subcutaneous 4T1 tumors [4] = test: Study 3 (09-4255): primary tumor growth in the SQ 4T1 model; assay type: in vivo, BALB/c mice; conditions: for effect on SQ 4T1 primary tumor growth: antibody IP 3x/week, ixabepilone 3 mg/kg IV every four days x3, capecitabine 360 mg/kg oral 14 days; for day cohort reached size endpoint (mean tumor volume 1500 mm^3): per cohort
Text: The remaining 30 animals were included into a companion experiment to this study, looking for the effects of 1D11 on macrophage recruitment and activity (see below).
An entire cohort of mice was sacrificed when the average tumor volume for a single group within that cohort reached […] or greater.

[5] = test system: 4T1 experimental metastases; test: 4T1 model of experimental metastasis (intracardiac injection); assay type: in vivo, mouse; conditions: 4T1 cells injected into left ventricle of the heart
Text: 1D11 was combined with paclitaxel in both a xenograft (MDA-MB-231) breast cancer model and the syngeneic 4T1 model of breast cancer. […] The MDA-MB-231 and 4T1 models were also used to test combinatorial therapies with 1D11 and the platinum compounds cisplatin or carboplatin.

[6] = Study 1 (09-3493): treatment-related adverse events; assay type: in vivo; conditions: ixabepilone 6 mg/kg, capecitabine 360 mg/kg, antibody 10 mg/kg
Text: • Time points: Day 0: Investigators inject 50,000 4T1 cells+[…] ® subcutaneously in the right flank • Day 3: Investigators begin 2-3×/week tumor measurements • Day 6: DCM Staff begin antibody dosing IP 3×/week • DCM Staff begin ixabepilone dosing IV Q4D×3 • DCM Staff begin capecitabine dosing by oral gavage QD×14 • Animals were sacrificed when the primary tumors reached a volume of 2000 mm^3 or prior to the study takedown if they presented with moribund conditions (lack of grooming, labored breathing, cachexia, anorexia, or lethargy). After sacrifice, the primary tumor was halved with one half embedded in OCT, and the other placed in zinc buffered formalin. The lungs and any other tissues bearing metastases were harvested and stored in zinc buffered formalin for enumeration of lung mets and IHC. • Tissues: Primary tumors m OCT and zinc buffered formalin, lungs harvested in zinc buffered formalin for assessment of metastasis and subsequent IHC.
Mice were sacrificed once primary tumor volumes reached 2000 mm^3 or greater or if the tumors became ulcerated>20% of the tumor's surface area, or if the animals presented with moribund conditions (lack of grooming, labored breathing, cachexia, anorexia or lethargy). Upon sacrifice, gross necropsies were performed and tumors, lungs and other tissues bearing metastases were harvested. […]

SMILES	effect on SQ 4T1 primary tumor growth (subcutaneous 4T1 tumors [1])	toxicity during dosing [2]	average size of the tumors at the time of study take down (subcutaneous 4T1 tumors [3]; Day 23, average of cohort (vehicle, 13C4 or 1D11 plus the chemotherapeutic))	effect on SQ 4T1 primary tumor growth / tumor volume (subcutaneous 4T1 tumors [3])	effect on SQ 4T1 primary tumor growth (subcutaneous 4T1 tumors [4])	day cohort reached size endpoint (mean tumor volume 1500 mm^3) (subcutaneous 4T1 tumors [4])	inhibition of metastases [5]	survival (subcutaneous 4T1 tumors [1]; same dosing, sacrifice at tumor volume 2000 mm^3 or moribund)	treatment-related toxicities [6]
CCCCCOC(=O)Nc1nc(=O)n([C@@H]2O[C@H](C)[C@@H](O)[C@H]2O)cc1F [capecitabine]	did inhibit tumor growth; also recorded: Inhibition of tumor growth; also recorded: inhibited 4T1 tumor growth but was not as efficacious as ixabepilone	no toxicity issues observed	~700 mm^3	trend towards inhibited growth of the primary tumors; also recorded: Inhibition of tumor growth	very modest tumor growth inhibition; also recorded: Inhibition of tumor growth; also recorded: inhibited 4T1 tumor growth slightly	27 study day	–	–	–
N.N.[Cl][Pt][Cl] [cisplatin]	–	–	–	–	–	–	able to inhibit metastases particularly to the bone	–	–
C/C(=C\c1csc(C)n1)[C@@H]1C[C@@H]2O[C@]2(C)CCC[C@H](C)[C@H](O)[C@@H](C)C(=O)C(C)(C)[C@@H](O)CC(=O)N1 [ixabepilone]	most efficacious at inhibiting 4T1 tumor growth compared to either antibody therapy or capecitabine; also recorded: Inhibition of tumor growth	no toxicity issues observed; also recorded: no animals in the study displayed signs of toxicity	–	significant reduction in tumor volume; also recorded: Inhibition of tumor growth	most efficacious at inhibiting 4T1 tumor growth as a monotherapy; also recorded: Inhibition of tumor growth	29 study day	–	greater than that of either the antibody or the capecitabine cohorts	some peripheral neuropathy

From patent US10507242B2, “Combination therapy for treating breast cancer” (Genzyme Corporation, priority 2010, dated 2019)
